Measurements taken from patent publication US20250003970A1, “FRET ENZYMATIC SUBSTRATE AND USES THEREOF IN LUNG CANCER” (URTESTE S.A., priority 2021, published 2025).
Several values for one entry are separate records, joined by “and”; a condition that tells them apart may be missing. Equal values may be shown once. Starred links: 1 amine or outer side, 2 acyl side, 3 side chain; linkers in the order of their positions; H or OH if unused. Non-standard residues stand in square brackets, D forms with d. No end group written: not given here. Benzoyl(5-NH,2-NO2) = O=C(c1cc(N[*:1])ccc1[N+](=O)[O-])[*:2]; 2Abz = Nc1ccccc1C(=O)O

Experiments:
Assay type in all cases: biochemical, human
[1] = system: enzymatic activity specific to lung cancer in urine from a subject suffering from lung cancer; assay: Absorbance measurement of substrate hydrolysis in urine from subjects with lung cancer; details: for absorbance (Results of absorbance analysis): 405 nm, 37° C., 60 minutes, pH 8.0, triplicate
Protocol: (§1) The activity of the novel compounds according to the invention was studied in a group of 20 subjects diagnosed with lung cancer using the representative compound according to the invention. […] The remaining compounds according to the invention are characterized by the analogous mechanism of action. For this purpose, the representative compound according to the invention, ABZ^1-Tyr^2-Ile^3-Phe^4-Arg^5-ANB^6-NH2, was dissolved in dimethyl sulfoxide (at a concentration of 0.5 mg/mL) and then 50 μL of the solution was mixed with 120 μL of a buffer (200 mM Tris-HCl, pH 8.0) and 80 μL of urine from a subject suffering from lung cancer. The measurement was performed on a 96-well plate designed for measuring absorbance and each sample was analysed in triplicate at the temperature of 37° C. The duration of the measurement was 60 minutes. During the measurement, the wavelength characteristic for the chromophore (ANB-NH2) being released was monitored at the wavelength 405 nm (range 380-430 nm).

[2] = system: urine samples taken from healthy persons; assay: Absorbance measurement of substrate hydrolysis in urine from healthy subjects; details: for absorbance (Results of absorbance analysis): healthy person, 405 nm, 37° C., 60 minutes, pH 8.0, triplicate
[3] = system: urine samples from patients with diagnosed cancers; assay: Selectivity of substrate cleavage in urine from patients with different cancers
Text: Arabic numerals indicate the numbers of given cancer types. The samples tested for each type of cancer were derived from 20 different patients for each of the tested cancers. The results are mean values for given cancer types.
as §1
Furthermore, the dependence of the cleavage selectivity of the substrate, i.e. the compound according to the invention, on the cancer being examined, was studied. […]

## ABZ-Tyr-Ile-Phe-Arg-ANB-NH2 ([2Abz]YIFR-{Benzoyl(5-NH,2-NO2)-NH2}) [chromogenic/fluorogenic FRET peptide substrate, ABZ = 2-aminobenzoic acid, ANB-NH2 = amide of 5-amino-2-nitrobenzoic acid]
[1]; all samples 1-50 from persons suffering from lung cancer
  cleavage of the substrate: underwent cleavage
[1]; samples 7 and 16 compared with samples 50 or 42 (FIG. 2)
  efficiency of cleavage of the substrate: less efficiently
[1]; urine sample 7, lung cancer
  absorbance (Results of absorbance analysis): 0.0015 and 0.0017 and 0.002
[1]; urine sample 8, lung cancer
  absorbance (Results of absorbance analysis): 0.0032 and 0.0031 and 0.0036
[1]; urine sample 9, lung cancer
  absorbance (Results of absorbance analysis): 0.026 and 0.0294 and 0.025
[1]; urine sample 10, lung cancer
  absorbance (Results of absorbance analysis): 0.0403 and 0.0738 and 0.056
[1]; urine sample 11, lung cancer
  absorbance (Results of absorbance analysis): 0.0195 and 0.019 and 0.0188
[1]; urine sample 12, lung cancer
  absorbance (Results of absorbance analysis): 0.0056 and 0.0068 and 0.0062
[1]; urine sample 13, lung cancer
  absorbance (Results of absorbance analysis): 0.063 and 0.0633 and 0.0632
[1]; urine sample 14, lung cancer
  absorbance (Results of absorbance analysis): 0.018 and 0.0176 and 0.0179
[1]; urine sample 15, lung cancer
  absorbance (Results of absorbance analysis): 0.015 and 0.0139 and 0.0146
[1]; urine sample 16, lung cancer
  absorbance (Results of absorbance analysis): 0.0015 and 0.0016 and 0.002
[1]; urine sample 17, lung cancer
  absorbance (Results of absorbance analysis): 0.0096 and 0.0095 and 0.0102
[1]; urine sample 18, lung cancer
  absorbance (Results of absorbance analysis): 0.0104 and 0.019 and 0.0156
[1]; urine sample 20, lung cancer
  absorbance (Results of absorbance analysis): 0.0443 and 0.0299 and 0.036
[1]; urine sample 21, lung cancer
  absorbance (Results of absorbance analysis): 0.0215 and 0.022 and 0.0256
[1]; urine sample 22, lung cancer
  absorbance (Results of absorbance analysis): 0.0301 and 0.0349 and 0.035
[1]; urine sample 23, lung cancer
  absorbance (Results of absorbance analysis): 0.0732 and 0.0483 and 0.065
[1]; urine sample 25, lung cancer
  absorbance (Results of absorbance analysis): 0.0703 and 0.0549 and 0.062
[1]; urine sample 26, lung cancer
  absorbance (Results of absorbance analysis): 0.149 and 0.1049 and 0.103
[1]; urine sample 27, lung cancer
  absorbance (Results of absorbance analysis): 0.1005 and 0.1078 and 0.106
[1]; urine sample 28, lung cancer
  absorbance (Results of absorbance analysis): 0.0613 and 0.0765 and 0.072
[1]; urine sample 29, lung cancer
  absorbance (Results of absorbance analysis): 0.0203 and 0.0218 and 0.025
[1]; urine sample 30, lung cancer
  absorbance (Results of absorbance analysis): 0.1595 and 0.1543 and 0.156
[1]; urine sample 31, lung cancer
  absorbance (Results of absorbance analysis): 0.0346 and 0.0306 and 0.036
[1]; urine sample 32, lung cancer
  absorbance (Results of absorbance analysis): 0.01457 and 0.0186 and 0.0159
[1]; urine sample 33, lung cancer
  absorbance (Results of absorbance analysis): 0.07 and 0.0625 and 0.0687
[1]; urine sample 34, lung cancer
  absorbance (Results of absorbance analysis): 0.0421 and 0.0243 and 0.036
[1]; urine sample 35, lung cancer
  absorbance (Results of absorbance analysis): 0.0402 and 0.0714 and 0.0632
[1]; urine sample 36, lung cancer
  absorbance (Results of absorbance analysis): 0.0046 and 0.0057 and 0.00498
[1]; urine sample 37, lung cancer
  absorbance (Results of absorbance analysis): 0.058 and 0.065 and 0.062
[1]; urine sample 38, lung cancer
  absorbance (Results of absorbance analysis): 0.0194 and 0.01741 and 0.0185
[1]; urine sample 40, lung cancer
  absorbance (Results of absorbance analysis): 0.0572 and 0.03085 and 0.0469
[1]; urine sample 41, lung cancer
  absorbance (Results of absorbance analysis): 0.0138 and 0.0163 and 0.0156
[1]; urine sample 42, lung cancer
  absorbance (Results of absorbance analysis): 0.1543 and 0.1976 and 0.175
[1]; urine sample 43, lung cancer
  absorbance (Results of absorbance analysis): 0.0366
[2]; urine sample 1Z
  absorbance (Results of absorbance analysis): 0.00000
[2]; urine sample 2Z
  absorbance (Results of absorbance analysis): 0.00000
[2]; urine sample 3Z
  absorbance (Results of absorbance analysis): 0.00000
[2]; urine sample 4Z
  absorbance (Results of absorbance analysis): 0.00000
[2]; urine sample 5Z
  absorbance (Results of absorbance analysis): 0.00000
[2]; urine sample 6Z
  absorbance (Results of absorbance analysis): 0.00000
[2]; urine sample 7Z
  absorbance (Results of absorbance analysis): 0.00000
[2]; urine sample 8Z
  absorbance (Results of absorbance analysis): 0.00000
[2]; urine sample 9Z
  absorbance (Results of absorbance analysis): 0.00000
[2]; urine sample 10Z
  absorbance (Results of absorbance analysis): 0.00000
[2]; urine sample 11Z
  absorbance (Results of absorbance analysis): 0.00000
[2]; urine sample 12Z
  absorbance (Results of absorbance analysis): 0.00000
[2]; urine sample 13Z
  absorbance (Results of absorbance analysis): 0.00000
[2]; urine sample 14Z
  absorbance (Results of absorbance analysis): 0.00000
[2]; urine sample 15Z
  absorbance (Results of absorbance analysis): 0.00000
[2]; urine sample 16Z
  absorbance (Results of absorbance analysis): 0.00000
[2]; urine sample 17Z
  absorbance (Results of absorbance analysis): 0.00000
[2]; urine sample 18Z
  absorbance (Results of absorbance analysis): 0.00000
[2]; urine sample 19Z
  absorbance (Results of absorbance analysis): 0.00000
[2]; urine sample 20Z
  absorbance (Results of absorbance analysis): 0.00000
[2]; urine sample 21Z
  absorbance (Results of absorbance analysis): 0.00000
[2]; urine sample 22Z
  absorbance (Results of absorbance analysis): 0.00000
[2]; urine sample 23Z
  absorbance (Results of absorbance analysis): 0.00000
[2]; urine sample 24Z
  absorbance (Results of absorbance analysis): 0.00000
[2]; urine sample 25Z
  absorbance (Results of absorbance analysis): 0.00000
[2]; urine samples from healthy persons 1Z to 25Z
  increase in absorbance / hydrolysis: does not lead to an increase in absorbance
[3]; lung cancer urine (sample 1) vs other neoplastic disease (samples 2-9), FIG. 3, mean values
  selectivity of hydrolysis of the substrate: selectivity of substrate cleavage in the case of urine from patients with lung cancer
[3]; samples from patients with testicular, intestine, kidney, prostate, pancreatic, bile duct, lung, ovarian, and rectum cancer
  cleavage / increase in absorbance: is not subject to cleavage
